From patent publication US20240041823A1, “USE OF MYCOLACTONE (MLN) AND DERIVATIVES THEREOF FOR TREATMENT OF MICROBIAL INFECTIONS” (priority 2022, published 2024)
Where “and” joins values, the source holds several entries; their conditions need not be identical. Equal entries are not always repeated. Entries after “also recorded” stand apart in the source; their conditions may differ. Where two headings read alike, the source gives them in different places.

Assays:
SARS-CoV-2 [1] = assay: Viral inhibition by Spike immunohistochemistry (IHC) assay in A549-ACE2 cells; format: cell-based; details: for 80% Inhibition of SARS-CoV-2: concentration giving 80% inhibition; for IC50: read-out: IC-50, Anti-SARS-CoV-2
SARS-CoV-2 Alpha strain = assay: microbe, parasite or virus in culture; format: cell-based; details: read-out: efficacy (viral titer reduction)
SARS-CoV-2 Delta strain = assay: microbe, parasite or virus in culture; format: cell-based; details: read-out: efficacy (viral titer reduction)
[2] = system: SARS-CoV-2 Omicron strain; assay: microbe, parasite or virus in culture; format: cell-based; details: read-out: efficacy (viral titer reduction)
SARS-CoV-2 [3] = format: cell-based
[4] = system: Human alveolar cell line A549; details: A549, maximum concentration tested 1.34 μM
[5] = system: immortalized Human fetal renal cell line HEK293; details: HEK293, maximum concentration tested 1.34 μM
[6] = system: Human hepatoma cell line Huh7.1; details: Huh7.1, maximum concentration tested 1.34 μM
[7] = system: A549, HEK293, and HUH7.1 cell lines
[8] = intradermal injection; cited from earlier work
[9] = Severe acute respiratory syndrome coronavirus 2, plaque assay

Molecule: COc1cccc2[nH]c(C(=O)N[C@@H](CC(C)C)C(=O)N[C@@H](C[C@@H]3CCNC3=O)C(=O)CO)cc12 [PF-00835231, reference compound]
- 80% Inhibition of SARS-CoV-2 (SARS-CoV-2 [1]): 0.68 µM
- 80% Inhibition of SARS-CoV-2 (SARS-CoV-2 [1]; listed as PF-00835231 (Pfizer)): 0.68 ± 0.023 µM
- IC50 (SARS-CoV-2 [1]): 230 ± 30 nM

Molecule: CCC(CC)COC(=O)[C@H](C)N[P@](=O)(OC[C@H]1O[C@@](C#N)(c2ccc3c(N)ncnn23)[C@H](O)[C@@H]1O)Oc1ccccc1 [Remdesivir, reference compound]
- IC50 (SARS-CoV-2 Alpha strain; [9]): 248 nM
- IC50 (SARS-CoV-2 Delta strain; [9]): 139 nM
- IC50 [2, 9]: 125 nM

Molecule: mycolactone [MLN]
- IC50 (SARS-CoV-2 [1]; A549-ACE2 cells, Spike IHC): 20 ± 6 nM
- inhibition (SARS-CoV-2 [1]; at 20 nM): 90%
- average inhibition (SARS-CoV-2 [1]; at 30nM, IHC assay in triplicate): 84%
- inhibition (SARS-CoV-2 [1]; at 42 nM): 100%
- 80% Inhibition of SARS-CoV-2 (SARS-CoV-2 [1]): 0.03 µM and 0.03 ± 0.005 µM
- viral inhibition against SARS-CoV-2 (SARS-CoV-2 [1]; up to 60nM, IHC assay in triplicate): 100%
- IC50 (SARS-CoV-2 Alpha strain; plaque assay): 20 nM
- IC50 (SARS-CoV-2 Delta strain; plaque assay): 15 nM
- IC50 ([2]; plaque assay): 7 nM
- blocking of virus entry (SARS-CoV-2 [3]): complete blocking activity; also recorded: completely blocks; also recorded: complete prevention
- blocking of virus spread (SARS-CoV-2 [3]): complete blocking activity; also recorded: completely blocks; also recorded: complete prevention
- Cytotoxicity [4]: 17.12±9.1%
- Cytotoxicity [5]: 40.30±3.6%
- Cytotoxicity [6]: 36.25±5.6%
- cytotoxicity IC50 breakpoint ratio versus anti-SARS-CoV-2 activity ([7]; 1.34 μM maximum concentration versus average IC50s): more than 65 ×
- cytotoxicity against human cell lines ([7]; in vitro): not cytotoxic
- half-life in the periphery blood circulation [8]: short
